Laboratory results: publication PMC6704710, “Preclinical evaluation of 3D185, a novel potent inhibitor of FGFR1/2/3 and CSF-1R, in FGFR-dependent and macrophage-dominant cancer models” (Journal of Experimental & Clinical Cancer Research : CR, 2019)

Legend:
Assay in all cases: Eurofins kinase panel
Format in all cases: biochemical
[1] = biological target: FGFR1(h) (Homo sapiens, UniProt P11362)
[2] = biological target: T1, PI3 Kinase (p110α(E542K)/p85α)(h) (Homo sapiens, UniProt P42336, E542K); conditions: read-out: Inhibition rate (%)
T1 construct: purchased Eurofins (KinaseProfiler)
T1 sequence (P42336 whole entry E542K): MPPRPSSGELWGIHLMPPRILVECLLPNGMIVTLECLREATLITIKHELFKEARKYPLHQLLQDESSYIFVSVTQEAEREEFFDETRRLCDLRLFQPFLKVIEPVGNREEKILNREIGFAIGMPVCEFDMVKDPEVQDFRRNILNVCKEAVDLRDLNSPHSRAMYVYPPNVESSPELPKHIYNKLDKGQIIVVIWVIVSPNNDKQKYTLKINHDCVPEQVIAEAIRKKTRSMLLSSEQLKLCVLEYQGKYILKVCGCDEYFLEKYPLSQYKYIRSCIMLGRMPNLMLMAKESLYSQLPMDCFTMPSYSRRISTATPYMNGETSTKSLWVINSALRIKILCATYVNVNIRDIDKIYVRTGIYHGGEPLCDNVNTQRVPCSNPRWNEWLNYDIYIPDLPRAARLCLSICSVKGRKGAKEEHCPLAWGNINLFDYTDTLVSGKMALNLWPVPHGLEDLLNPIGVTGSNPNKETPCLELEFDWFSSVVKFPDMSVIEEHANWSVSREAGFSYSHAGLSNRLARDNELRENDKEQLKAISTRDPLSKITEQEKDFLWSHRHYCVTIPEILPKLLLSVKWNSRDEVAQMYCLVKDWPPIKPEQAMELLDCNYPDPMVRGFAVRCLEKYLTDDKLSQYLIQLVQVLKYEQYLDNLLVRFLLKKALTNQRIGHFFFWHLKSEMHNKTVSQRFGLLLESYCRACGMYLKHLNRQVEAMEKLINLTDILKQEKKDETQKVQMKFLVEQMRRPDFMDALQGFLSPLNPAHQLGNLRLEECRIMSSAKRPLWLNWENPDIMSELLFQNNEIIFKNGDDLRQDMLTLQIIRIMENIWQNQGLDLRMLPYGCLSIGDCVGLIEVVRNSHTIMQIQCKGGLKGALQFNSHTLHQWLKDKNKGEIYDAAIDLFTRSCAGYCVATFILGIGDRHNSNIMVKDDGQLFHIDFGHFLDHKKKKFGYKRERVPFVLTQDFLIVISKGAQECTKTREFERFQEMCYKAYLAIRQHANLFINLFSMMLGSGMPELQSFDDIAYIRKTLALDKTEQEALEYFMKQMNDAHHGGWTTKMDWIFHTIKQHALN
T1 sequence (P27986 whole entry partner): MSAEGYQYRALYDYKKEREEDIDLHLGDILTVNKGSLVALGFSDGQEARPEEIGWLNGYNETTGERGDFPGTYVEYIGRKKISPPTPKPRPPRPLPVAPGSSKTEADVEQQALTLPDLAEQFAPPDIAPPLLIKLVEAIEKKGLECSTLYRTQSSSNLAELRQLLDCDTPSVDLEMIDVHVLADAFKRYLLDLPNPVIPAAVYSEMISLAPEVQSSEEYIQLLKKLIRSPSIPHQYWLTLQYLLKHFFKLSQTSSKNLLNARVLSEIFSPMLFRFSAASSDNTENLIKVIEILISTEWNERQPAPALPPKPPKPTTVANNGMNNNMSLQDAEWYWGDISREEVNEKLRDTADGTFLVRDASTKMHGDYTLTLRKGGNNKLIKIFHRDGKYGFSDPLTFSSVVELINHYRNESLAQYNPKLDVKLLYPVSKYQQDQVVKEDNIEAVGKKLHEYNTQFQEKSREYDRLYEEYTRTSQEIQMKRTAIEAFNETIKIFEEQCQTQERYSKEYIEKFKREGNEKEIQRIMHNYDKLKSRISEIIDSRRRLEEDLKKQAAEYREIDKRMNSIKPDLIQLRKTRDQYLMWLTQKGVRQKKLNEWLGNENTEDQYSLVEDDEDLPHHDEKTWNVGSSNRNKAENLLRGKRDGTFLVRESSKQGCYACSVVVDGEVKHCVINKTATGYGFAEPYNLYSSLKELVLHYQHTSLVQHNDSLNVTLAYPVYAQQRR

[3] = biological target: T2, CHK2(h) (Homo sapiens, UniProt O96017); conditions: read-out: Inhibition rate (%)
T2 construct: purchased Eurofins (KinaseProfiler)
T2 sequence (O96017 whole entry): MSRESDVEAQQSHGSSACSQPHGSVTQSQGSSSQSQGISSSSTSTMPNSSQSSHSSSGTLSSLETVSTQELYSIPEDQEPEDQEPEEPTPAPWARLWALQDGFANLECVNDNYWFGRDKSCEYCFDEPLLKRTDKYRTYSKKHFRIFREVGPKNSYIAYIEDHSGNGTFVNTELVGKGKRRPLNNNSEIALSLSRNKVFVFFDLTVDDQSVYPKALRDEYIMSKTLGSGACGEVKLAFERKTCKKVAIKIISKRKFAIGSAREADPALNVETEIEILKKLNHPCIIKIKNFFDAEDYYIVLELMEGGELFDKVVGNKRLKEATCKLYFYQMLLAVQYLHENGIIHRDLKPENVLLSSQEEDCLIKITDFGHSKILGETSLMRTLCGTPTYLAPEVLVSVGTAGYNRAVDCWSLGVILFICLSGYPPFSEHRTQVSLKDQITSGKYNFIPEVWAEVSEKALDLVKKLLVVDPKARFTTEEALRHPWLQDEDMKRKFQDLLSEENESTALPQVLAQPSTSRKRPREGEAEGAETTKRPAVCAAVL

[4] = biological target: T3, CK2α2(h) (Homo sapiens, UniProt P19784); conditions: read-out: Inhibition rate (%)
T3 construct: purchased Eurofins (KinaseProfiler)
T3 sequence (P19784 whole entry): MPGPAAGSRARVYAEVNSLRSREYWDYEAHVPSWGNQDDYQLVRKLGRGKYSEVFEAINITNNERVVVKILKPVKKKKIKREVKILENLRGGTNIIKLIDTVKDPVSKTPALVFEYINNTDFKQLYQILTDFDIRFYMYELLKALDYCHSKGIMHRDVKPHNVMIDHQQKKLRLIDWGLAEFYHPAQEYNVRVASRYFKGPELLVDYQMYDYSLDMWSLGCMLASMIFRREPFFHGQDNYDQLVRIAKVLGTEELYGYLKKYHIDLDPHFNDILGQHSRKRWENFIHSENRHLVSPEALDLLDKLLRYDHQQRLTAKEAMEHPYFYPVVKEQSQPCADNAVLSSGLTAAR

[5] = biological target: T4, Fer(h) (Homo sapiens, UniProt P16591); conditions: read-out: Inhibition rate (%)
T4 construct: purchased Eurofins (KinaseProfiler)

[6] = biological target: T5, PhKγ1(h) (Homo sapiens, UniProt Q16816); conditions: read-out: Inhibition rate (%)
T5 construct: purchased Eurofins (KinaseProfiler)
T5 sequence (Q16816 whole entry): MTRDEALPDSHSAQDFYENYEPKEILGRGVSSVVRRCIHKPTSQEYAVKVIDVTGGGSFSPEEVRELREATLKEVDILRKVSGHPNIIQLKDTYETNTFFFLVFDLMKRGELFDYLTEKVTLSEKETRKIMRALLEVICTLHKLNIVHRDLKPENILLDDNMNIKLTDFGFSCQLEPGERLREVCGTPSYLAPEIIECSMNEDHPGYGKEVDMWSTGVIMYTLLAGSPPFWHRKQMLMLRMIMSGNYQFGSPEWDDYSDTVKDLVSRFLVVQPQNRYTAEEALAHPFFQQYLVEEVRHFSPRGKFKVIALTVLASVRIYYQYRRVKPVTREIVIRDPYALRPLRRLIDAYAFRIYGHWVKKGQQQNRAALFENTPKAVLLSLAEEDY

[7] = biological target: T6, ULK2(h) (Homo sapiens, UniProt Q8IYT8); conditions: read-out: Inhibition rate (%)
T6 construct: purchased Eurofins (KinaseProfiler)
T6 sequence (Q8IYT8 1-1036): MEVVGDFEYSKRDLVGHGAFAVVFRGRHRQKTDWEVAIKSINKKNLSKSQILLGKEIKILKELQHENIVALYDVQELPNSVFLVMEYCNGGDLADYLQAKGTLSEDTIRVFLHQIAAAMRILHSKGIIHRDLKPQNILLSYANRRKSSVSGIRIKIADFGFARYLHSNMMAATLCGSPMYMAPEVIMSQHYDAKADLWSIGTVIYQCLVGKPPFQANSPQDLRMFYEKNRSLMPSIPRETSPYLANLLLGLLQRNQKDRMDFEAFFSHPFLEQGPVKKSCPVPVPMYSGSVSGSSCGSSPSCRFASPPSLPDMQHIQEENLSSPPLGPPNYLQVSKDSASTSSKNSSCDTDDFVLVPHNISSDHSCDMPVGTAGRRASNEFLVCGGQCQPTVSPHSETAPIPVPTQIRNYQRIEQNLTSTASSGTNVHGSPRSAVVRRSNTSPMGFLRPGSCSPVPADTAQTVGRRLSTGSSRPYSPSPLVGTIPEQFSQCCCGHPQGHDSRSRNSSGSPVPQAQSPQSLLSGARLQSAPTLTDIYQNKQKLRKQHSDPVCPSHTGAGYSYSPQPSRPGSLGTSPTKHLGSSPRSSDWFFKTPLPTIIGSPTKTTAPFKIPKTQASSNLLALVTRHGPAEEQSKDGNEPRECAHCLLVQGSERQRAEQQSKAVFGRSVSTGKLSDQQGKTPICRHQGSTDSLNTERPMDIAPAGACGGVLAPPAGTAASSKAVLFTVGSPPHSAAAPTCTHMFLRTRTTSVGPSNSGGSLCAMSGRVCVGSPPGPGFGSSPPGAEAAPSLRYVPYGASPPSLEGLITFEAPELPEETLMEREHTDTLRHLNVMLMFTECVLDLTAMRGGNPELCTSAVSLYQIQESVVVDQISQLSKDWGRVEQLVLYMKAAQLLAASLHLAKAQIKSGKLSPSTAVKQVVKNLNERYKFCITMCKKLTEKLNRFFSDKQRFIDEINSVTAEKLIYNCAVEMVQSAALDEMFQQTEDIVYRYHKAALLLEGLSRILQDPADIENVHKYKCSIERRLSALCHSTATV

[8] = biological target: T7, SGK2(h) (Homo sapiens, UniProt Q9HBY8); conditions: read-out: Inhibition rate (%)
T7 construct: purchased Eurofins (KinaseProfiler)
T7 sequence (Q9HBY8 1-367): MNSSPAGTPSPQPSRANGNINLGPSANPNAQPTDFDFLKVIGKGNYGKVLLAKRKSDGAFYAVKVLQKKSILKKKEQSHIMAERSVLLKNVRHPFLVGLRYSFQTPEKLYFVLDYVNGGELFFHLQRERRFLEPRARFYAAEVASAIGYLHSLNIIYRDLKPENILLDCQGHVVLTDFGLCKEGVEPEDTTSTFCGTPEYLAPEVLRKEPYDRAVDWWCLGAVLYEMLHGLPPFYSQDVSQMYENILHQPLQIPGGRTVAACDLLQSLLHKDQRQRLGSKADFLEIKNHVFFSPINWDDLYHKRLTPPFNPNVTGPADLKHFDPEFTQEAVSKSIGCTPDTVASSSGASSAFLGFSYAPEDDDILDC

[9] = biological target: T8, CK2(h) (Homo sapiens, UniProt P68400); conditions: read-out: Inhibition rate (%)
T8 construct: purchased Eurofins (KinaseProfiler)
T8 sequence (P68400 whole entry): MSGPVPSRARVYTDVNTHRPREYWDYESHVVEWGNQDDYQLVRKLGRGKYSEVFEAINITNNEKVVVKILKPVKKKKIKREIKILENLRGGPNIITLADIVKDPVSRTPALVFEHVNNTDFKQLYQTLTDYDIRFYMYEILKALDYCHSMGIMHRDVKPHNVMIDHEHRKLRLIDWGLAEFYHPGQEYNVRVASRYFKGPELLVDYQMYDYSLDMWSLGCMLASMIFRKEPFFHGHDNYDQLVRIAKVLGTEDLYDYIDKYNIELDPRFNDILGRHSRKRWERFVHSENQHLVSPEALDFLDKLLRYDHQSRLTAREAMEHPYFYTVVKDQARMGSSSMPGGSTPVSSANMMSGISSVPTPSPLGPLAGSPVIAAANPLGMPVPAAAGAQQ
T8 sequence (P67870 whole entry partner): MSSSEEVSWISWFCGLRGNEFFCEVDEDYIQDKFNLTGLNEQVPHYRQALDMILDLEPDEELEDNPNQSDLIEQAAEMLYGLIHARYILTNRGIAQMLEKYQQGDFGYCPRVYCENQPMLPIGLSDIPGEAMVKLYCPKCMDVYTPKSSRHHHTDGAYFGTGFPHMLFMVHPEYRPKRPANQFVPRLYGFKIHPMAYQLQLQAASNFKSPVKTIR

Chain of FGFR1(h) (P11362 22-822): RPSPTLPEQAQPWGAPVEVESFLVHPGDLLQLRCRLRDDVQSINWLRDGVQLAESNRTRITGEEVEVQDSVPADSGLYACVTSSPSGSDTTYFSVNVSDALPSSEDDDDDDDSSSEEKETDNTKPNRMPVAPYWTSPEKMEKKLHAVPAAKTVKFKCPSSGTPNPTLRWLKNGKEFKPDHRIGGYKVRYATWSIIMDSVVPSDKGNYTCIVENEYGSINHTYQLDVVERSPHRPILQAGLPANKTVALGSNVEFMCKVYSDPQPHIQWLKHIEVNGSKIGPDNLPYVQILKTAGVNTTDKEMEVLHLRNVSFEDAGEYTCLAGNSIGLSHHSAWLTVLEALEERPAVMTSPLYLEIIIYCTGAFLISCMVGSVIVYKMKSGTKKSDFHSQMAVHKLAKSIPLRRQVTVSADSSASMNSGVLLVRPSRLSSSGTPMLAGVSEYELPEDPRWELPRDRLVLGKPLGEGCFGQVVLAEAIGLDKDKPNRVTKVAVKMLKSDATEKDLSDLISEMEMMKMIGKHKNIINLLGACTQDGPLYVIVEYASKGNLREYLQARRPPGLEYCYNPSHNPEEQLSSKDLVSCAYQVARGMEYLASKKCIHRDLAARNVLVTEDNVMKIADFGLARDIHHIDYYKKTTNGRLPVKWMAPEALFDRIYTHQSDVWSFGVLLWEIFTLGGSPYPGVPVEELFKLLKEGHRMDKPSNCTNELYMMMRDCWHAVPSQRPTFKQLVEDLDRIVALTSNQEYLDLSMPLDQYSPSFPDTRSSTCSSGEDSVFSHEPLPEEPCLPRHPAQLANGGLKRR

Compound: COc1cc(OC)c(Cl)c(-c2ccc3c(NC(=O)c4ccc(N5CCNC(C)(C)C5)cc4)n[nH]c3n2)c1Cl [3D185]
- IC50 ([1]; estimated from 372-kinase panel): < 10 nM
- inhibition at 0.01 µM ([1]; read-out: Inhibition rate (%)): 99%
- inhibition at 0.1 µM ([1]; read-out: Inhibition rate (%)): 98%
- inhibition at 1 µM ([1]; read-out: Inhibition rate (%)): 100%
- inhibition at 0.01 µM ([2]; 10 nM): -2%
- inhibition at 0.1 µM ([2]; 100 nM): 2%
- inhibition at 1 µM ([2]; 1000 nM): 2%
- inhibition at 0.01 µM ([3]; 10 nM): 0%
- inhibition at 0.1 µM ([3]; 100 nM): 4%
- inhibition at 1 µM ([3]; 1000 nM): 11%
- inhibition at 0.01 µM ([4]; 10 nM): 0%
- inhibition at 0.1 µM ([4]; 100 nM): 1%
- inhibition at 1 µM ([4]; 1000 nM): -6%
- inhibition at 0.01 µM ([5]; 10 nM): -11%
- inhibition at 0.1 µM ([5]; 100 nM): 0%
- inhibition at 1 µM ([5]; 1000 nM): 42%
- inhibition at 0.01 µM ([6]; 10 nM): -1%
- inhibition at 0.1 µM ([6]; 100 nM): -9%
- inhibition at 1 µM ([6]; 1000 nM): -12%
- inhibition at 0.01 µM ([7]; 10 nM): 4%
- inhibition at 0.1 µM ([7]; 100 nM): 14%
- inhibition at 1 µM ([7]; 1000 nM): 22%
- inhibition at 0.01 µM ([8]; 10 nM): 4%
- inhibition at 0.1 µM ([8]; 100 nM): 1%
- inhibition at 1 µM ([8]; 1000 nM): 26%
- inhibition at 0.01 µM ([9]; 10 nM): 2%
- inhibition at 0.1 µM ([9]; 100 nM): 9%
- inhibition at 1 µM ([9]; 1000 nM): 9%
